Test results as given in US4954348A, “Non-ionic polyol contrast media from ionic contrast media” (Cook Imaging Corporation, priority 1988, dated 1990).
Like-named read-outs stand apart in the source and are kept apart here.

Columns and labels:
[1] = Osmolality at 300 mg I/ml, 37° C.; format: physicochemical; conditions: for Osmolality: 300 mg I/ml, 37° C.; for osmolality versus existing compounds: existing compounds serving as control
Protocol: (§1) All compounds were tested for stability, solubility, osmolality, viscosity and systemic toxicity, using conventional tests.
(§2) *All at 300 mg I/ml concentration and 37° C. Injection rates 1

[2] = Viscosity at 300 mg I/ml, 37° C.; format: physicochemical
Protocol: as §1, §2

[3] = tested on: Mice (female CD-1); assay: i.v. LD50 in mice (systemic toxicity); format: in vivo; conditions: 300 mg I/ml, 37° C., injection rate 1 ml/min
Protocol: as §1, §2
(§3) ml/min in mice and 5 ml/min in rats.
(§4) ^° Ref. Salvesen, S. in Acta Radiol. Suppl. 362, p. 73, 1980.

[4] = tested on: Rats (female Lewis); assay: i.v. LD50 in rats (systemic toxicity); format: in vivo; conditions: 300 mg I/ml, 37° C., injection rate 5 ml/min
Protocol: as §1, §2, §3, §4

[5] = stability, solubility, osmolality, viscosity and systemic toxicity, conventional tests (overall statement); conditions: existing compounds serving as control
Protocol: as §1

[6] = 300 mg I/ml, 37° C.; ^+ Ref. Handbook of Experimental Pharmacology, Vol. 73; cited from earlier work
[7] = 300 mg I/ml, 37° C.; ^+ Ref. Handbook of Experimental Pharmacology, Vol. 73; cited from earlier work; remark: listed apart in the source
[8] = must be dispensed in lyophilized form and reconstituted prior to use; cited from earlier work

SMILES	Osmolality [1]	osmolality versus existing compounds [1]	Viscosity [2]	i.v. LD50 [3]	i.v. LD50 [4]	stability, solubility, viscosity and systemic toxicity (other categories) versus existing compounds [5]	Osmolality [6]	Viscosity [7]	hydrolytic stability [8]
CNC(=O)c1c(I)c(C(=O)N[C@H](CO)[C@@H](O)CO)c(I)c(N(CC(O)CO)C(C)=O)c1I (relative stereo) [XVI, 5-(N-2,3-Dihydroxypropylacetamido)-2,4,6-triido-N-methyl-N'-(1,3,4-trihydroxy-erythro-but-2-yl)-isophthalamide]	513 mOsm/kg	substantially reduced osmolality	5.2 cps	12-13 gI/kg	13.5-14 gI/kg	comparable or superior properties in the other categories			
CC(=O)N(CC(O)CO)c1c(I)c(C(=O)NCC(O)CO)c(I)c(C(=O)NCC(O)CO)c1I (stereo not shown) [Iohexol]				17.9 gI/kg	13.5-15 gI/kg		690 mOsm/kg	6.1 cps	
C[C@H](O)C(=O)Nc1c(I)c(C(=O)NC(CO)CO)c(I)c(C(=O)NC(CO)CO)c1I [Iopamidol]				17-18.5 gI/kg	12.2-13 gI/kg		619 mOsm/kg	4.5 cps	
COCC(=O)Nc1c(I)c(C(=O)NCC(O)CO)c(I)c(C(=O)N(C)CC(O)CO)c1I (stereo not shown) [Iopromide]				11.5-13.0 gI/kg	10-11.5 gI/kg		607 mOsm/kg	4.8 cps	
CC(=O)Nc1c(I)c(C(=O)N[C@H]2C(O)O[C@H](CO)[C@@H](O)[C@@H]2O)c(I)c(N(C)C(C)=O)c1I (stereo partly shown) [Metrizamide]									hydrolytic instability
CC(=O)N(CC(O)CO)c1c(I)c(C(=O)NCCO)c(I)c(C(=O)NCC(O)CO)c1I (stereo not shown) [VIII, 5-(N-2,3-Dihydroxypropylacetamido)-2,4,6-triiodo-N-(2,3-dihydroxypropyl)-N'-(2-hydroxyethyl)isophthalamide]	524 mOsm/kg	substantially reduced osmolality	4.9 cps	18.8 gI/kg	14-16.5 gI/kg	comparable or superior properties in the other categories			
